Assay [1] relates to β-amyloid peptide production in 293 751 SWE and CHO 751 SWE cells. The assay is described as follows: β-Amyloid Peptide Production Inhibition Activity In Cells (cellular assay, ELISA normalised to MTT). It is filed as cell-based. Particulars: for inhibition at 0.31 µg/mL: 0.31 μg/ml; for inhibition at 0.31 µg/mL / inhibition at 0.62 µg/mL / inhibition at 1.25 µg/mL / inhibition at 2.5 µg/mL / inhibition at 5 µg/mL / inhibition at 10 µg/mL: read-out: Percent Inhibition (β-amyloid peptide production); for inhibition at 0.62 µg/mL: 0.62 μg/ml. On the procedure: β-AMYLOID PEPTIDE […] (CELLULAR ASSAY)
Two cell lines (human kidney cell line 293 and Chinese hamster ovary cell line CHO) were stably transfected with the gene for APP751 containing the double mutation Lys651 -Met652 to Asn651 -Leu652 (APP-751 numbering) commonly called the Swedish mutation using the method described in Citron, et al., Nature 360:672-674 (1992). The transfected cell lines were designated as 293 751 SWE and CHO 751 SWE, and were plated in Corning 96 well plates at 2.5×10^4 or 1×10^4 cells per well respectively in Dulbecco's minimal essential media (DMEM) plus 10% fetal bovine serum. Following overnight incubation at 37° C. in an incubator equilibrated with 10% carbon dioxide (CO2), the media were removed and replaced with 200 μl per well of media containing an aspartyl protease inhibitor. After a two hour pretreatment period, the media were again removed and replaced with fresh media containing the aspartyl protease inhibitor and the cells were incubated for an additional two hours.
After treatment, plates were centrifuged at 1200 rpm for five minutes at room temperature to pellet cellular debris from the conditioned media. From each well, 100 μl of conditioned media were transferred into an ELISA plate precoated with antibody 266 against β-amyloid peptide(13-28) (Seubert et al., supra. ) and stored at 4° C. overnight. An ELISA assay employing labelled antibody 6C6 (against β-amyloid peptide-1-16) was run the next day to measure the amount of β-amyloid peptide produced.
Cytotoxic effects of the compounds were measured by a modification of the method of Hansen et al., (1989) J. Immun. Meth. 119:203-210. To the cells remaining in the tissue culture plate, was added 25 μl of a 3-(4,5-dimethylthiazol-2-yl)2,5-diphenyltetrazolium bromide (MTT) stock solution (5 mg/ml) to a final concentration of […]. Cells were incubated at 37° C. for one hour, and cellular activity was stopped by the addition of an equal volume of MTT lysis buffer (20% w/v sodium dodecylsulfate in 50% DMF, pH 4.7). Complete extraction was achieved by overnight shaking at room temperature. The difference in the OD562nm and the OD650nm was measured in a Uvmax microplate reader as an indicator of the cellular viability.
The results of the β-amyloid peptide ELISA were fit to a standard curve and expressed as ng/ml β-amyloid peptide. In order to normalize for cytotoxicity, these β-amyloid peptide results were divided by the MTT results and expressed as a percentage of the results from a drug-free control.
A general note: An ELISA detects its analyte on a solid surface through an enzyme-linked reagent.

Assay [2] addresses T1, cathepsin D (Homo sapiens, UniProt P07339).
T1 construct: Human brain cathepsin D was purified from frozen post-mortem cortex; from tissue; host or cells: human tissue: brain cortex (Assay 1), liver (Assay 2, bought from Athens Research and Technology) or placenta (Assay 3); the results are not tied to one of them
The assay is described as follows: Cathepsin D Inhibition Assay (non-cellular). It is filed as biochemical. From the text:
First, test compounds which inhibit exemplary aspartyl proteases, particularly cathepsin D, are identified as aspartyl protease inhibitors. As used herein, the term "test system" refers to an assay that is designed to measure aspartyl protease inhibitory activity. A typical test system used for such identification is a non-cellular assay where turnover of the protease substrate is monitored upon the administering of a protease inhibitor. The turnover of the protease […] is then compared to the turnover of substrate in a control test system in which no such aspartyl protease inhibitor has been administered. As used herein, the term "control test system" refers to an identical test system that is run side-by-side with the test system with the exception no aspartyl protease inhibitor is administered. This non-cellular assay is used to identify those test compounds having suitable aspartyl protease inhibitory activity in a non-cellular environment. An example of a non-cellular assay that may be used to determine in vitro aspartyl protease inhibitory activity reacts partially purified human brain cathepsin D with a substrate, e.g., porcine renin tetradecapeptide. The resultant reaction mixture is divided into portions and each portion is incubated for a different period of time. After the reaction is stopped, the turnover of substrate in each portion is determined using reverse-phase high performance liquid chromatography (HPLC). Protease inhibition activity may be calculated based on the rates of substrate turnover. This assay is exemplified in Assay 1, below. A second non-cellular assay for determining in vitro aspartyl protease inhibitory activity utilizes a microtiter plate, where a suitable aspartyl protease, such as a cathepsin D is added to each well together with controls. A suitable fluorometric substrate is added to each well. The resultant reaction mixture is allowed to react for a preselected time, e.g., 30 minutes. After enzyme activity is terminated, the substrate or its product may be determined fluorometrically and then the protease inhibition activity may be calculated based on the rates of substrate turnover. This assay is exemplified in Assay 2, below. CATHEPSIN D INHIBITION ACTIVITY (NON-CELLULAR ASSAY) Human brain cathepsin D was purified from frozen post-mortem cortex substantially in accordance with the method of Nixon and Morotta, (1984) J. Neurochem. 43:507-516. The cortex material was prepared and applied to a DEAE-Sepharose® column. The flow through fraction was dialyzed against 50 mM Tris-HCl, pH 7.5, and applied to concanavalin A Sepharose® and eluted with 50 mM Tris, pH 7.5, 0.5M methyl α-D-mannopyranoside. The eluted cathepsin D activity was dialyzed against 25 mM Tris, pH 7.5, and stored at -40° C. (Con A pool) until use. […] The substrate, a porcine renin tetradecapeptide,was added to each reaction mixture to yield a final concentration of 44 μM in a total volume of 300 μl. The samples were incubated at 37° C. for 0, 10, 20, or 30 minutes, and then boiled for 5 minutes to stop the reaction. The samples were centrifuged in a microcentrifuge for 10 minutes at 14,000 rpm at 4° C. After centrifugation, 200 μL of each reaction was injected onto a C18 reverse phase liquid chromatography column (Vydac, Hesperia, Calif.) with a Perkin Elmer ISS 100 autosampler and eluted with a gradient of 0-50% CH3 CN in 0.1% CF3 CO2 H at 2 ml/min. Peptide product peaks were monitored at 220 nm with a Perkin Elmer LC 95 detector and integrated with Rainin Dynamax software in order to quantitate activity. CATHEPSIN D INHIBITION ACTIVITY (NON-CELLULAR FLUOROMETIC ASSAY) A fluorometric assay was adapted from the method disclosed by Murakami et al., (1981) Anal. Biochem. 110:232-239 for measuring renin activity. […] Compound stocks were prepared by dissolving an aspartyl protease inhibitor in DMSO for each concentration tested in the assay and then 5 μL of compound stock was added to each of the wells prepared above. […]

Where [3] appears, read: 10.0 μg/ml, read-out: Percent Inhibition (cathepsin D).

The source of these data is US5747517A, “Benzylidene rhodanines” (Eli Lilly and Company, priority 1996, dated 1998).

T1 sequence (P07339 169-412 limits assumed): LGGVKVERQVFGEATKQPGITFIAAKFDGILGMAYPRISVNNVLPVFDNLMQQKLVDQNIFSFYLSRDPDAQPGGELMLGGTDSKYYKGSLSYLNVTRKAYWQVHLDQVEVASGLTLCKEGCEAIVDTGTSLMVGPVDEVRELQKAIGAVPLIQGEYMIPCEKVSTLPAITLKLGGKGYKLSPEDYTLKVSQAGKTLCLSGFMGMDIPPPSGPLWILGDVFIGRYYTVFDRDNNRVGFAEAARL
T1 sequence (P07339 65-162 limits assumed): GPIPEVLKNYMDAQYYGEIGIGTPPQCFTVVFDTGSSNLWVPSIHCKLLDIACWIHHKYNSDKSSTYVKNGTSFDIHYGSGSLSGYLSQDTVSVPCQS

One may read the inhibition as the percentage by which the read-out fell short of the control. Consider `CCCc1c(COc2ccc(C=C3SC(=S)NC3=O)cc2)ccc(C(C)=O)c1O` [Example 1, 5-[[4-[(4-acetyl-3-hydroxy-2-propylphenyl)methoxy]phenyl]methylene]-2-thioxo-4-thiazolidinone], for which the inhibition at 0.31 µg/mL amounted to 4% in assay [1] and 4% in assay [2] (0.31 μg/ml, read-out: Percent Inhibition (cathepsin D)). For the same molecule, the inhibition at 0.62 µg/mL in assay [1] amounted to 0%; in assay [2] (0.62 μg/ml, read-out: Percent Inhibition (cathepsin D)), 0%. In addition, the inhibition at 1.25 µg/mL in assay [1] (1.25 μg/ml) was found to be 15%; in assay [2] (1.25 μg/ml, read-out: Percent Inhibition (cathepsin D)), 15%. Moreover, the inhibition at 2.5 µg/mL in assay [1] (2.50 μg/ml) amounted to 15%; in assay [2] (2.50 μg/ml, read-out: Percent Inhibition (cathepsin D)), 15%. Besides, the inhibition at 5 µg/mL in assay [1] (5.00 μg/ml) stood at 26%; in assay [2] (5.00 μg/ml, read-out: Percent Inhibition (cathepsin D)), 26%. For the same molecule, the “Percent Inhibition (β-amyloid peptide production)” value in assay [1] (10.0 μg/ml) is 45%. For the same molecule, the inhibition at 10 µg/mL in assay [1] (10.0 μg/ml) and in assay [2] (setting [3]) was 60% throughout. Further, the “Percent Inhibition (cathepsin D)” value in assay [2] (10.0 μg/ml) came to 45%.
As to `O=C1NC(=S)SC1=Cc1ccc(OCc2ccccc2)cc1` [Example 3, 5-[[4-(benzyloxy)phenyl]methylene]-2-thioxo-4-thiazolidinone], in assay [1], the inhibition at 0.31 µg/mL came out at 14% and the inhibition at 0.62 µg/mL is 19%. Besides, in assay [1] (1.25 μg/ml), the “Percent Inhibition (β-amyloid peptide production)” value is recorded as 21% and the inhibition at 1.25 µg/mL is 15%. In assay [1] (2.50 μg/ml), the “Percent Inhibition (β-amyloid peptide production)” value was 33% and the inhibition at 2.5 µg/mL worked out at 24%. In assay [1] (5.00 μg/ml), the “Percent Inhibition (β-amyloid peptide production)” value amounted to 51% and the inhibition at 5 µg/mL turned out to be 41%. In assay [1] (10.0 μg/ml), the “Percent Inhibition (β-amyloid peptide production)” value was determined as 74% and the inhibition at 10 µg/mL is 67%. Further, in assay [2] (setting [3]), the inhibition at 10 µg/mL was 14%.
